pIC50: −log10 of the molar value.
Columns and labels:
[1] = test system: beta-catenin driven transcription in HAP1 WT cells; assay: qPCR of beta-catenin driven transcription in HAP1 WT cells (CHIR treated); assay type: cell-based; conditions: CHIR treated
[2] = test system: Wnt/beta-catenin pathway in COLO320DM tumors; assay: Tumor RNA-sequencing and GSEA in COLO320DM tumors; assay type: in vivo, mice; conditions: 48-hr post-dose, i.p. 30 mg/kg
From the text: It is noted that both negatively and positively enriched gene sets were observed. Among other things, the present disclosure provides technologies for assessing efficacy of a method, e.g., a treatment, comprising assessing expression of one or more negatively and/or positively enriched genes. In some embodiments, if expression profiles of one or more genes are negatively and/or positively enriched as identified herein, a method may be considered to have efficacy, and/or administration (e.g., of provided technologies such as stapled peptides, compositions, etc.) to a subject can continue. […]
RNAseq Data Analysis. In some embodiments, sequence reads were trimmed to remove possible adapter sequences and nucleotides with poor quality using Trimmomatic v.0.39. The trimmed reads were mapped to the Homo sapiens GRCh38 reference genome available on ENSEMBL using the STAR aligner v.2.7.7a. For grafted tumor samples, host reads were removed with XenofilteR. Unique gene hit counts were calculated by using featureCounts from the R Subread package v.2.4.2. Read filtering, normalization, and differentially expression analysis was performed with the edgeR package v.4.0.2 in R. Genes with an adjusted p-value <0.01 and absolute log 2 fold change >1 were called as differentially expressed genes for each comparison. […]
RNAseq Preparation. […] On average over 60 million 2×150 base pair reads were produced per sample. […]

[3] = molecular target: T1, full-length B-Catenin (Uniprot ID P35222) (Homo sapiens, UniProt P35222); assay type: binding; conditions: read-out: Competition Fluorescence Polarization IC50
T1 construct: 10 nM full-length B-Catenin (Uniprot ID P35222)
T1 sequence (P35222 1-781): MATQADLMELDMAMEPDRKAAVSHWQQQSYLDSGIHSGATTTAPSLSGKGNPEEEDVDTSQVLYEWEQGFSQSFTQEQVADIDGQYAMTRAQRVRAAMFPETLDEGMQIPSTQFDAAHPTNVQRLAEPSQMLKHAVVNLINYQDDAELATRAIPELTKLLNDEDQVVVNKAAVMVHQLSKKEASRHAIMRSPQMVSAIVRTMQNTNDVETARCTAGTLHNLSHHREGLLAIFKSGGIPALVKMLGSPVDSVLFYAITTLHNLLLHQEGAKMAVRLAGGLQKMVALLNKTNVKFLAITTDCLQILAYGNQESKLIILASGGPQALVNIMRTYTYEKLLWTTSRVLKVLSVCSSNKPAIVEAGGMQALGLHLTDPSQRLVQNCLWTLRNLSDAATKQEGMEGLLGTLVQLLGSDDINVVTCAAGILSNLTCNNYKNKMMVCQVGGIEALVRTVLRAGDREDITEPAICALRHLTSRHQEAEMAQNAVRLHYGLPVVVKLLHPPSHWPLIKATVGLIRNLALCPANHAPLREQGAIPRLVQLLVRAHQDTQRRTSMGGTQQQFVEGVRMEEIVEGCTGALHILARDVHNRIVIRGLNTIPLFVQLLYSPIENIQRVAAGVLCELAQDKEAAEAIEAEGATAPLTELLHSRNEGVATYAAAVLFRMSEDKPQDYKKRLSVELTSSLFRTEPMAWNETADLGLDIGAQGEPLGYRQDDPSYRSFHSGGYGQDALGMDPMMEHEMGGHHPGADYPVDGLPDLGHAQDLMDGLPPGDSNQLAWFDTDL

Ac-PL3-Glu-Npg-B5-Glu-3COOHF-Aib-Ala-Phe-Lys*3-PyrS2-3Thi-BztA-GlnR*3-Ala-NH2 [I-470]
expression of AXIN2 and SP5 by qPCR (transcription) [1]: No reduction
concentration in tumors [2]: 5181 ng/gram
pIC50 [3]: 5.12

— patent publication US20240360179A1, “STAPLED PEPTIDES AND METHODS THEREOF” (FOG PHARMACEUTICALS, INC., priority 2021, published 2024)
